# pIC50: −log10 of the molar value. Like-named read-outs stand apart in the source and are kept apart here.
# Columns and labels:
# [1] = tested on: metrazol-induced convulsions; test: Suppression of Metrazol-Induced Convulsions in Adult Male Mice; type: in vivo; settings: Mus musculus, ip
# Procedure: Assay to Determine the Suppression of Metrazol-Induced Convulsions in Adult Male Mice
# Male CD1 mice, were fasted at least 16 hours, were divided into equal groups and test compounds or vehicle were administered parenterally. Water was not withheld except during the period of observations. […] Metrazol was dissolved in 0.9% sodium chloride solution, and its dose volume was 10 ml/kg. Animals were housed individually for observation of clonic convulsions, tonic convulsions and death for a period of 30 min. […] The biological assay was considered to be valid if the effects of a known anticonvulsant (positive control) were detected, within the same experiment. Activity was reported as percent reduction of clonic convulsions from the vehicle group.
# [2] = tested on: Anxiety in the Adult Male Rat; test: Suppression of Anxiety in the Adult Male Rat (rat conflict test); type: in vivo, rats; settings: Rattus norvegicus
# Procedure: Assay to Measure the Suppression of Anxiety in the Adult Male Rat
# Male rats were deprived of water for 48 hours and were deprived of food for 24 hours prior to testing. After the first 24 hours of water deprivation, they were placed in the conflict chamber for a training period; wherein, they were allowed 200 unpunished licks from a bottle containing tap water. The experiment was run the next day. At the expected time of peak activity, the animals were placed in the chamber and allowed access to tap water. […] Their first lick initiates a 3-min test session. Subsequently, every 20th lick was punished by a 0.2-s shock delivered via the stainless-steel drinking-tube.
# The Wilcoxon rank-sum test (Mann-Whitney U-test) was used to test for an increase (p<0.05, 1-tailed) in the median number of shocks in drug-treated groups, compared to a concurrently run vehicle-treated group. The biological assay is considered to be valid if the effects of a known anxiolytic (positive control) are detected, within the same experiment.
# [3] = tested on: metrazol-induced convulsions; test: Suppression of Metrazol-Induced Convulsions in Adult Male Mice; type: in vivo; settings: Mus musculus, po
# [4] = target: benzodiazepine site of the GABA-A receptor; test: Benzodiazepine Receptor Binding Assay (inhibition of 3H-flunitrazepam binding); settings: read-out: GABAA Receptor Binding IC50
# [5] = block of clonic convulsions, male CD1 mice, >30 = active dose not determined
# [6] = ip, minimum effective dose, increase in shocks tolerated, >10 = active dose not determined, read-out: Rat Conflict (MED, mg/kg) ip
# [7] = po, minimum effective dose, increase in shocks tolerated, >10 = active dose not determined, read-out: Rat Conflict (MED, mg/kg) po
# [8] = inhibition of 3H-flunitrazepam (ca. 3 nM) binding to membranes, 25°C, over 10,000 = not active
# [9] = po, rat, po, read-out: Rat Conflict (MED, mg/kg) po
Structure (SMILES),"ED50 [1, 5] [mg/kg]","minimal effective dose [2, 6] [mg/kg]","minimal effective dose [2, 7] [mg/kg]","ED50 [3, 5] [mg/kg]","pIC50 [4, 8]",ED50 ([1]; mouse) [mg/kg],"minimal effective dose [2, 9] [mg/kg]",ED50 ([3]; mouse) [mg/kg],pIC50 [4]
CN1CCCC(N2C3=C(C(=O)Nc4ccccc4F)C(=O)CCN3c3ccc(F)cc32)C1 (stereo not drawn) [Compound 87],3,> 10,> 10,10,7.51,,,,
O=C1CCN2C(=C1C(=O)Nc1ccccc1F)N(CCN1CCOCC1)c1cc(F)ccc12 [Compound 88],0.1,> 10,10,7,8.44,,,,
N#CCN1C2=C(C(=O)Nc3ccccc3F)C(=O)CCN2c2ccc(F)cc21 [Compound 89],< 1,,1,0.5,8.74,,,,
COc1cccc(NC(=O)C2=C3N(CC#N)c4ccccc4N3CCC2=O)c1 [Compound 90],< 1,,1,0.5,8.22,,,,
CCOCN1C2=C(C(=O)Nc3ccc(OC(=O)OC)cc3F)C(=O)CCN2c2ccc(F)cc21 [Compound 100],,,,,,≥ 1,~1,3 to 30,8.36
CCOCN1C2=C(C(=O)Nc3ccc(C)s3)C(=O)CCN2c2ccccc21 [Compound 101],,,,,,< 1,3,< 3,9.02
COCCN1C2=C(C(=O)Nc3nccs3)C(=O)CCN2c2ccccc21 [Compound 102],,,,,,~1,10,~6,8.05
CCOCN1C2=C(C(=O)Nc3ccccc3F)C(=O)CCN2c2ccc(F)c(F)c21 [Compound 103],,,,,,< 1,1,< 3,9.26
CCOCN1C2=C(C(=O)Nc3ccc(OC)cc3)C(=O)CCN2c2ccc(F)cc21 [Compound 104],,,,,,< 1,0.1,< 3,8.98
CCOCN1C2=C(C(=O)Nc3cccs3)C(=O)CCN2c2ccccc21 [Compound 105],,,,,,< 1,10,< 3,9.08
COCCN1C2=C(C(=O)Nc3ccc(OC)cc3)C(=O)CCN2c2ccc(F)cc21 [Compound 106],,,,,,< 1,1,0.3,8.35
COCCN1C2=C(C(=O)Nc3ccccc3F)C(=O)CCN2c2c(O)cccc21 [Compound 108],,,,,,> 1,> 10,≥ 30,7.98
COCCN1C2=C(C(=O)NC3CCCCC3)C(=O)CCN2c2ccc(F)cc21 [Compound 110],,,,,,≥ 1,10,≥ 30,7.72
CCOCN1C2=C(C(=O)NC3CC3)C(=O)CCN2c2ccc(F)cc21 [Compound 111],,,,,,> 1,> 10,> 30,8.72
"COC(=O)OCCN1C2=C(C(=O)Nc3ccccc3F)C(=O)CCN2c2ccc(F)cc21 [Compound 114, 7-Fluoro-1,2-dihydro-5-[2-(methoxycarbonyloxy)ethyl]-3-oxo-N-(2-fluorophenyl)pyrido[1,2-a]benzimidazole-4-carboxamide]",,,,,,< 1,3,≤ 3,9.52
CCOCN1C2=C(C(=O)Nc3cc4ccccc4s3)C(=O)CCN2c2ccccc21 [Compound 116],,,,,,> 1,> 10,> 30,7.00
COCCN1C2=C(C(=O)NC3CC3)C(=O)CCN2c2ccc(F)cc21 [Compound 118],,,,,,< 1,10,~3,8.43
CCOCN1C2=C(C(=O)Nc3ccc(S(C)(=O)=O)s3)C(=O)CCN2c2ccc(F)cc21 [Compound 120],,,,,,> 1,> 10,~3,7.45
CCOCCN1C2=C(C(=O)Nc3ccc(S(C)(=O)=O)s3)C(=O)CCN2c2ccc(F)cc21 [Compound 121],,,,,,> 1,> 10,> 30,7.08

# Reference: EP1420018A1, “Pyrido[1,2-a]benzimidazole derivatives useful in treating central nervous system disorders” (Ortho-McNeil Pharmaceutical, Inc., priority 1996, dated 1998)
